Where two headings read alike, the source gives them in different places.
Columns and labels:
Assay type in all cases: cell-based
Raji cells / γδ T cells = assay: TNF-α production from γδ T cells stimulated by compound-pretreated Raji cells; conditions: Burkitt's lymphoma, 4 hr pretreatment, 16 hr with γδ T cells, read-out: TNF-α50
Procedure: (§1) Since the above-mentioned results of Experimental Example confirm that the activity of bisphosphonic acids becomes high by POM esterification in various tumor cells, the TNF-α production induction ability of more number of tumor cells was quantitatively studied. […] Thereto was added a solution (500 μl) of compound 7 obtained by serially diluting 10 mM stock solution 10-fold from 20 μM, or a solution (500 μl) of compound 14 obtained by serially diluting 10 mM stock solution 10-fold from 200 μM, and the cells were suspended well. These conical tubes were stood at 37° C. for 4 hr, and the cells were washed 3 times with 5 ml of culture medium. To these cells was added 500 μl of medium, and the cells were suspended well. […] The cell culture medium was suspended well, and the plate was centrifuged at 1,700 rpm, 4° C. for 2 min and the culture supernatant (150 μl) was taken and placed in another round-bottomed 96 well plate. The plate was frozen at −80° C. overnight, left standing at room temperature for 1 hr, stirred well and 100 μl thereof was subjected to ELISA of TNF-α. The content of TNF-α was calculated from the analytical curve of TNF-α. These were performed in triplicate, and TNF-α50 of bisphosphonic acid POM ester derivative (compound 7) and bisphosphonic acid (compound 14) was calculated and summarized in Table 8.

OST cells / γδ T cells = assay: TNF-α production from γδ T cells stimulated by compound-pretreated OST cells; conditions: Osteosarcoma, 4 hr pretreatment, 16 hr with γδ T cells, read-out: TNF-α50
Procedure: as §1

PK-1 cells = assay: PK-1 tumor cell growth inhibition (CellTiterGlo); conditions: PK-1, Pancreatic cancer, 4 days culture
Procedure: (§2) First, EJ-1, 786-0, MKN1, OST, PC-3, PK-1, LK-2, G-361, TFK-1, MRK-nu-1 were cultured in RPMI1640 medium supplemented with 10% calf serum at 37° C. under 5% CO2 atmosphere while maintaining log phase. The cells were recovered by a conventional EDTA trypsin treatment, and centrifuged at 1,700 rpm, 4° C. for 5 min. The supernatant was removed, and suspended in RPMI1640 medium supplemented with 10% calf serum to 500 cells/50 μl. On the other hand, 10 mM stock solution of compound 7 which is a bisphosphonic acid POM ester derivative was serially diluted 2-fold from 200 pM. In addition, 10 mM stock solution of compound 14 which is bisphosphonic acid was serially diluted 2-fold from 2 mM. Then, the cell suspension (50 μl, 500 cells) and the compound solution (50 μl) were added to a flat-bottomed 96 well plate and cultured at 37° C. under 5% CO2 atmosphere for 4 days. Then, 100 μl of CellTiterGlo solution was added, and the mixture was pipetted 10 strokes, and transferred to a 96 well OptiPlate. After standing at room temperature for 10 min, the luminescence was measured by a luminometer and IC50 value was calculated.

THP-1 cells = assay: THP-1 tumor cell growth inhibition (CellTiterGlo); conditions: THP-1, Acute monocytic leukemia, 4 days culture
Procedure: (§3) To quantitatively study an action of compound 7, which is a bisphosphonic acid POM ester derivative, on various hematologic tumor-derived lymphoma and myeloidic leukemia cells, the concentration of a compound that inhibits cell proliferation to half was calculated as IC50, and a direct antitumor effect was studied from the value thereof. […] First, MOLT-4, THP-1, SCC-3, PEER, RAMOS-RA1, C1R, MOLT-3, Raji, U937, K562, Daudi were cultured in RPMI1640 medium supplemented with 10% calf serum at 37° C. under 5% CO2 atmosphere while maintaining log phase. The cells were recovered, and centrifuged at 1,700 rpm, 4° C. for 5 min. The supernatant was removed, and suspended in RPMI1640 medium supplemented with 10% calf serum to 500 cells/50 μl. On the other hand, 10 mM stock solution of compound 7 which is a bisphosphonic acid POM ester derivative was serially diluted 2-fold from 200 μM. In addition, 10 mM stock solution of compound 14 which is bisphosphonic acid was serially diluted 2-fold from 2 mM. Then, the cell suspension (50 μl, 500 cells) and the compound solution (50 μl) were added to a flat-bottomed 96 well plate and cultured at 37° C. under 5% CO2 atmosphere for 4 days. Then, 100 μl of CellTiterGlo solution was added, and the mixture was pipetted 10 strokes, and transferred to a 96 well OptiPlate. […]

RAMOS-RA1 cells = assay: RAMOS-RA1 tumor cell growth inhibition (CellTiterGlo); conditions: PAMOS-RA1 (so in the source), Burkitt's lymphoma, 4 days culture
Procedure: as §3

EJ-1 cells / γδ T cells = assay: TNF-α production from γδ T cells stimulated by compound-pretreated EJ-1 cells (indirect antitumor action, ELISA); conditions: for EC50: EJ-1 pretreated 4 hr with compound, 16 hr with γδ T cells, TNF-α ELISA, read-out: TNF-α50
Method in brief: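 EJ-1 cells exposed 4 h at 37 °C to 10-fold serial dilutions (POM esters from 20 µM, bisphosphonic acids from 200 µM), washed three times, then co-cultured with γδ T cells. Supernatant TNF-α measured by ELISA against a standard curve, in triplicate; TNF-α50 = […].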

LK-2 cells = assay: LK-2 tumor cell growth inhibition (CellTiterGlo); conditions: LK-2, Lung cancer, 4 days culture
Procedure: as §2

PK1 cells / γδ T cells = assay: TNF-α production from γδ T cells stimulated by compound-pretreated PK1 cells; conditions: PK1, Pancreatic cancer, 4 hr pretreatment, 16 hr with γδ T cells, read-out: TNF-α50
Procedure: as §1

SCC-3 cells = assay: SCC-3 tumor cell growth inhibition (CellTiterGlo); conditions: SCC-3, Non-Hodgkin's lymphoma, 4 days culture
Procedure: as §3

Raji cells = assay: Raji tumor cell growth inhibition (CellTiterGlo); conditions: Burkitt's lymphoma, 4 days culture
Procedure: as §3

K562 cells = assay: K562 tumor cell growth inhibition (CellTiterGlo); conditions: K562, Erythromcytoma, 4 days culture
Procedure: as §3

CC(C)(C)C(=O)OCOP(=O)(OCOC(=O)C(C)(C)C)C(CNc1nccs1)P(=O)(OCOC(=O)C(C)(C)C)OCOC(=O)C(C)(C)C [Compound 7, tetrakispivaloyloxymethyl 2-(thiazol-2-ylamino) ethylidene-1,1-bisphosphonate]
EC50 (Raji cells / γδ T cells): 53 nM
EC50 (OST cells / γδ T cells): 600 nM
IC50 (PK-1 cells): 340 nM
IC50 (THP-1 cells): 35 nM
IC50 (RAMOS-RA1 cells): 110 nM
EC50 (EJ-1 cells / γδ T cells): 60 nM
TNF-α production induction activity (in words) (EJ-1 cells / γδ T cells; EJ-1 pretreated with compound, γδ T cells): high activity
IC50 (LK-2 cells): 800 nM
EC50 (PK1 cells / γδ T cells): 450 nM
IC50 (SCC-3 cells): 180 nM
IC50 (Raji cells): 270 nM
IC50 (K562 cells): 29 nM

O=P(O)(O)C(CNc1nccs1)P(=O)(O)O [Compound 14, 2-(thiazol-2-ylamino)ethylidene-1,1-bisphosphonic Acid, reference compound]
EC50 (Raji cells / γδ T cells; Homo sapiens): > 100000 nM
EC50 (OST cells / γδ T cells; T-cell): > 100000 nM
IC50 (PK-1 cells; 96 h): 110000 nM
IC50 (THP-1 cells; Homo sapiens, 96 h): 130000 nM
IC50 (RAMOS-RA1 cells; 96 h): 75000 nM
EC50 (EJ-1 cells / γδ T cells; EJ1): 68000 nM
IC50 (LK-2 cells; Homo sapiens, 96 h): 35000 nM
EC50 (PK1 cells / γδ T cells; PK-1): > 100000 nM
IC50 (SCC-3 cells; Homo sapiens, 96 h): 66000 nM
IC50 (Raji cells; Homo sapiens, 96 h): 120000 nM
IC50 (K562 cells; Homo sapiens, 96 h): 16000 nM

Reference: patent US10532065B2, “Bisphosphonic acid derivative and application for same” (NAGASAKI UNIVERSITY, priority 2014, dated 2020)
